Structures can show the parent of a compound that is named as a salt.

From US9227960B2, “Bisaryl (thio)morpholine derivatives as S1P modulators” (ABBVIE B.V., priority 2010, dated 2016) come the findings set out here.

The target in data set [1] is T1, human S1P5 receptor (Homo sapiens, UniProt Q9H228).
T1 construct: host or cells: CHO (AequoScreen recombinant cell line, co-expressing mitochondrially targeted apo-Aequorin)
In words: In vitro functional activity (agonism) on human S1P5 receptors, CHO-human-S1P5-Aequorin assay. Type of data set: cell-based. The note with it: CHO-human-S1P5-Aequorin cells, luminescence, read-out: S1P5 pEC50 (converted). The text has this: In Vitro Functional Activity (Agonism) on Human S1P5 Receptors
(§1) The CHO-human-S1P5-Aecorin assay was bought from Euroscreen, Brussels (Euroscreen, Technical dossier, Human Lysophospholid S1P5 (Edg8) receptor, DNA clone and CHO AequoScreen™ recombinant cell-line, catalog no: ES-593-A, September 2006). Human-S1P5-Aequorin cells express mitochondrial targeted apo-Aequorin. Cells have to be loaded with coelanterazine, in order to reconstitute active Aequorin. After binding of agonists to the human S1P5 receptor the intracellular calcium concentration increases and binding of calcium to the apo-Aequorin/coelenterazine complex leads to an oxidation reaction of coelenterazine, which results in the production of apo-Aequorin, coelenteramide, CO2 and light (λmax 469 nm). This luminescent response is dependent on the agonist concentration. Luminescence is measured using the MicroBeta Jet (Perkin Elmer). Agonistic effects of compounds are expressed as pEC50. Compounds were tested at a 10 points half log concentration range, and 3 independent experiments were performed in single point's measurements.

Data set [2] has as its target T2, human S1P3 receptor (Homo sapiens, UniProt Q99500).
T2 construct: cell line established at Solvay Pharmaceuticals; host or cells: CHO K1 (CHO/Gα16/AEQ/h-S1P3)
The data set can be described thus: In vitro functional activity (agonism) on human S1P3 receptors, CHO-human-S1P3-Aequorin assay. It is filed as cell-based. The note with it: CHO/Gα16/AEQ/h-S1P3 cells, luminescence, read-out: S1P3 pEC50 (converted).
Text: In Vitro Functional Activity (Agonism) on Human S1P3 Receptors
The CHO-human-S1P3-Aeqorin assay (CHO/Gα16/AEQ/h-S1P3) was established at Solvay Pharmaceuticals. The plasmid DNA coding for the S1P3 receptor (accession number in GenBank NM_005226 was purchased from UMR cDNA resource Centre (Rolla, Mo.). The pcDNA3.1/hS1P3 construct carrying the mitochondrially targeted apo-Aeqorin and Gα16 protein was transfected in CHO K1 cell-line.
as §1, with “Human-S1P3-Aequorin” for “The CHO-human-S1P5-Aecorin assay was bought from Euroscreen, Brussels (Euroscreen, Technical dossier, Human Lysophospholid S1P5 (Edg8) receptor, DNA clone and CHO AequoScreen™ recombinant cell-line, catalog no: ES-593-A, September 2006). Human-S1P5-Aequorin”, “S1P3” for “S1P5”

The target of data set [3] is T3, human S1P1 (Homo sapiens, UniProt P21453).
T3 construct: host or cells: CHO-K1
T3 sequence (P21453 whole entry): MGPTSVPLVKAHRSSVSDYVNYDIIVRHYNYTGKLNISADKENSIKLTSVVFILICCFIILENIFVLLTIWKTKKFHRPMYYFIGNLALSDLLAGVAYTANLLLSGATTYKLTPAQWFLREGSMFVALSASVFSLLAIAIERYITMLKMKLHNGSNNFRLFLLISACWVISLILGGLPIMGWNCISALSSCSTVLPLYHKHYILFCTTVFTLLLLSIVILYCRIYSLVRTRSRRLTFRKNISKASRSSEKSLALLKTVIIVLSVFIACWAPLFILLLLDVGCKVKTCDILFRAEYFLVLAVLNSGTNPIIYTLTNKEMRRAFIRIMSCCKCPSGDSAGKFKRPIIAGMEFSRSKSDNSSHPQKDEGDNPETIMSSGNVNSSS
In words: In vitro functional activity (agonism) on human S1P1 receptors, CHO-K1-Human S1P1-c-AMP assay. The note with it: CHO-K1 cells expressing human S1P1, cAMP with Forskolin (HTRF), read-out: S1P1 pEC50 (converted). It is filed as cell-based. As to the method:
In Vitro Functional Activity (Agonism) on Human S1P1 Receptors
The CHO-K1-Human S1P1-c-AMP assay was performed at Euroscreenfast, Brussels (Euroscreen, Human S1P1 coupling […] (Edg1) receptor, catalog no: FAST-0197C, December 2009).
Recombinant CHO-K1 cells expressing human S1P1, grown to mid-log Phase in culture media without antibiotics, detached, centrifuged and re-suspended. For agonist testing cells are mixed with compound and Forskolin and incubated at room temperature. Cells are lyses and cAMP concentration are estimated, according to the manufacturer specification, With the HTRF kit from CIS-BIO International (cat n° 62AM2PEB).
Agonistic effects of compounds are expressed as a percentage of the activity of the reference compound at its EC100 concentration, EC50 is calculated and results are reported as pEC50. Compounds were tested at a 10 points half log concentration range duplicated in 1 experiment.
On the technique in general: TR-FRET usually uses a lanthanide donor and a delayed reading to cut background.

T1 sequence (Q9H228 whole entry): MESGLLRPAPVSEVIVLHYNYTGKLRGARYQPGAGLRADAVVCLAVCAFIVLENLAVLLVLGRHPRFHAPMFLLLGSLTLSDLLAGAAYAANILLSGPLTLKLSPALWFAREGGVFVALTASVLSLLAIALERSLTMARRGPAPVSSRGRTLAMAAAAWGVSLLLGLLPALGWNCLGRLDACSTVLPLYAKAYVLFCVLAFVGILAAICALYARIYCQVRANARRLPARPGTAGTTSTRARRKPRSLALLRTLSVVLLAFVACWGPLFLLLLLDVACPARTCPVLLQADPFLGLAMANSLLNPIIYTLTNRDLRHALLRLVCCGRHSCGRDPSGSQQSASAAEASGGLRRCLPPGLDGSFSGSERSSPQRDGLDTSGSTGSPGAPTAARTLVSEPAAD
T2 sequence (Q99500 whole entry): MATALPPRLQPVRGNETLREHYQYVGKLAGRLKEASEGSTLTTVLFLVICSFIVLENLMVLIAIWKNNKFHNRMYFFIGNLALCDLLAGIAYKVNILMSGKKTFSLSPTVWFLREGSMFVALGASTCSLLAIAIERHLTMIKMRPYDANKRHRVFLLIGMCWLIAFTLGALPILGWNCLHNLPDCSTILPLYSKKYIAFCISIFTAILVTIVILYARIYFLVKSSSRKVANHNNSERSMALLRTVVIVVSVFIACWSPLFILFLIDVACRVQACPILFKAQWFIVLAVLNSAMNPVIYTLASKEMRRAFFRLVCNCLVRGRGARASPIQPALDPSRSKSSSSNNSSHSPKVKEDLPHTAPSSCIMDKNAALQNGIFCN

Take `O=C(O)CCN1CCOC(c2ccc(Oc3cccc4ccccc34)cc2)C1` (centres unmarked) [Compound 29, 3-{2-[4-(Naphthalen-1-yloxy)-phenyl]-morpholin-4-yl}-propionic acid hydrochloride]: the values for the EC50 in data set [1] and in data set [2] were 63.1 nM and more than 10000 nM, respectively.

For `O=C(O)CCN1CCOC(c2ccc(Oc3ccc4ccccc4c3)cc2)C1` (centres unmarked) [Compound 68, 3-{2-[4-(Naphthalen-2-yloxy)-phenyl]-morpholin-4-yl}-propionic acid hydrochloride], the EC50 in data set [1] is 631 nM; in data set [2], more than 10000 nM.

In the case of `Cl.O=C(O)CCN1CCOC(c2ccc(Oc3c(Cl)cccc3Cl)cc2F)C1` (centres unmarked), the melting point (usually the temperature of the solid-liquid transition) lay within 207 to 209 °C.

Take `Cc1cccc(Oc2ccc(C3(C)CN(CCC(=O)O)CCO3)cc2)c1C` (centres unmarked) [Compound 80, 3-{2-[4-(2,3-Dimethyl-phenoxy)-phenyl]-2-methyl-morpholin-4-yl}-propionic acid hydrochloride]: the figures for the EC50 in data set [1], in data set [3] and in data set [2] were 631 nM, more than 31600 nM and more than 10000 nM, respectively.

In the case of `O=C(O)CCN1CCOC(c2ccc(C(=O)c3c(Cl)cccc3Cl)cc2)C1` (centres unmarked) [Compound 6, 3-{2-[4-(2,6-Dichloro-benzoyl)-phenyl]-morpholin-4-yl}-propionic acid hydrochloride], the values for the EC50 in data set [1], in data set [3] and in data set [2] were 501 nM, more than 3160 nM and more than 10000 nM, respectively.

As to `Cc1ccc(Oc2ccc(C3CN(CCC(=O)O)CCO3)cc2)cc1Cl` (centres unmarked) [Compound 15, 3-{2-[4-(3-Chloro-4-methyl-phenoxy)-phenyl]-morpholin-4-yl}-propionic acid hydrochloride], the figures for the EC50 in data set [1] and in data set [2] were 501 nM and more than 10000 nM, respectively.

Compound `Cc1cccc(C)c1Oc1cccc(C2CN(CCC(=O)O)CCO2)c1` (centres unmarked) (as salt: hydrochloride) came in with a melting point of 219 to 223 °C.

`Cc1cccc(Oc2ccc(C3CN(CCCC(=O)O)CCO3)cc2)c1C` (centres unmarked) (as salt: hydrochloride) [Compound 87, 4-{2-[4-(2,3-Dimethyl-phenoxy)-phenyl]-morpholin-4-yl}-butyric acid hydrochloride] gave a melting point of 225 to 227 °C.

Take `CCCCc1ccc(Oc2ccc(C3CN(CCC(=O)O)CCO3)cc2)cc1` (centres unmarked) [Compound 26, 3-{2-[4-(4-Butyl-phenoxy)-phenyl]-morpholin-4-yl}-propionic acid hydrochloride]: the EC50 in data set [1] was 2000 nM; in data set [2], 5010 nM.

Take `Cc1cccc(C)c1Nc1ccc(C2CN(CCC(=O)O)CCO2)cc1` (centres unmarked) [Compound 2, 3-{2-[4-(2,6-Dimethyl-phenylamino)-phenyl]-morpholin-4-yl}-propionic acid hydrochloride]: the values for the EC50 in data set [1] and in data set [2] were 631 nM and more than 10000 nM, respectively.

As for `Cc1ccc(Oc2ccc(C3CN(CCC(=O)O)CCO3)cc2)cc1` (centres unmarked) [Compound 64, 3-[2-(4-p-Tolyloxy-phenyl)-morpholin-4-yl]-propionic acid hydrochloride], the EC50 in data set [1] is 1580 nM; in data set [2] it was more than 10000 nM.

Consider `Cl.O=C(O)CCN1CCSC(c2ccc(Oc3ccccc3Cl)cc2)C1` (centres unmarked), for which the melting point fell in the range of 155 to 160 °C.

In turn, `Cl.O=C(O)CCN1CCOC(c2ccc(Oc3c(Cl)cccc3Cl)c(Cl)c2)C1` (centres unmarked) came in with a melting point of 224 to 227 °C.

As for `Cc1cccc(Oc2ccc(C3CN(CCCC(=O)O)CCO3)cc2)c1C` (centres unmarked) [Compound 87, 4-{2-[4-(2,3-Dimethyl-phenoxy)-phenyl]-morpholin-4-yl}-butyric acid hydrochloride], the EC50 in data set [1] was 1000 nM.

`O=C(O)CCN1CCOC(c2ccc(Oc3ccccc3C(F)(F)F)cc2)C1` (centres unmarked) [Compound 35, 3-{2-[4-(2-Trifluoromethyl-phenoxy)-phenyl]-morpholin-4-yl}-propionic acid hydrochloride]: the EC50 in data set [1] is 200 nM; in data set [2] it was more than 10000 nM.

As to `O=C(O)CCN1CCOC(c2ccc(Oc3ccc(OCc4ccccc4)cc3)cc2)C1` (centres unmarked) [Compound 57, 3-{2-[4-(4-Benzyloxy-phenoxy)-phenyl]-morpholin-4-yl}-propionic acid hydrochloride], the EC50 in data set [1] is 2000 nM; in data set [2] it was more than 10000 nM.

Consider `CC1(C)CN(CCC(=O)O)CC(c2ccc(Oc3c(Cl)cccc3Cl)cc2)O1` (centres unmarked) [Compound 73, 3-{6-[4-(2,6-Dichloro-phenoxy)-phenyl]-2,2-dimethyl-morpholin-4-yl}-propionic acid], for which the EC50 in data set [1] is 158 nM; in data set [3] it was more than 3160 nM.

On to `Cl.O=C(O)CCN1CCOC(c2ccc(Oc3c(Cl)cccc3Cl)cc2C(F)(F)F)C1` (centres unmarked), for which the melting point lay within 135 to 136 °C.

The compound `Cc1cccc(Oc2ccc(C3CN(CCC(=O)O)CCS3)cc2)c1C.Cl` (centres unmarked) returned a melting point of 178 to 183 °C.

`Cc1cccc(Cl)c1Oc1ccc(C2CN(CCC(=O)O)CCS2)cc1.Cl` (centres unmarked) had a melting point of 192.5 to 195 °C.

With `Cc1ccc(Oc2ccc(C3CN(CCC(=O)O)CCO3)cc2)cc1C` (centres unmarked) [Compound 47, 3-{2-[4-(3,4-Dimethyl-phenoxy)-phenyl]-morpholin-4-yl}-propionic acid hydrochloride], the EC50 in data set [1] is 200 nM; in data set [2], more than 10000 nM.
